Data: patent US5225528A, “Cyclic hexapeptide oxytocin antagonists” (priority 1990, dated 1993)
Read-outs that look alike come from different tables or passages of the source. Numbered stars: 1 amine (or outer) side, 2 acyl side, 3 side chain; on linkers, the order of the positions; unused ones are H or OH. Square brackets hold non-standard residues; d marks the D form. Peptide text beside a SMILES is read from it. * marks the point of attachment. ξ: configuration not given here. X2 = O=C(OCc1ccccc1)N1CCN([*:1])[C@H](C(=O)[*:2])C1; d1Nal = N[C@H](Cc1cccc2ccccc12)C(=O)O; d2Nal = N[C@H](Cc1ccc2ccccc2c1)C(=O)O; dHis(π-Me) = Cn1cncc1C[C@@H](N)C(=O)O; X12 = O=C([C@@H]1CCCNN1[*:1])[*:2]; Pip(4-aza) = O=C(O)[C@@H]1CNCCN1; X6 = O=C([C@H]1CCCNN1[*:1])[*:2]; dNMeF = CN[C@H](Cc1ccccc1)C(=O)O; dPip(4-aza) = O=C(O)[C@H]1CNCCN1; ξmTyr = NC(Cc1cccc(O)c1)C(=O)O; Pip = O=C(O)[C@@H]1CCCCN1; dPip = O=C(O)[C@H]1CCCCN1; Boc = CC(C)(C)OC(=O)*

Tests used:
AVP-V2 sites = molecular target: T1, AVP-V2 sites (Rattus norvegicus, UniProt Q00788); experiment: [^3 H]AVP binding to crude membrane preparation of male rat kidney medulla (AVP-V2 sites)
T1 construct: male rat liver (AVP-V1 sites) or kidney medulla (AVP-V2 sites); from tissue; host or cells: male rat kidney medulla, crude membranes
T1 sequence (Q00788 whole entry): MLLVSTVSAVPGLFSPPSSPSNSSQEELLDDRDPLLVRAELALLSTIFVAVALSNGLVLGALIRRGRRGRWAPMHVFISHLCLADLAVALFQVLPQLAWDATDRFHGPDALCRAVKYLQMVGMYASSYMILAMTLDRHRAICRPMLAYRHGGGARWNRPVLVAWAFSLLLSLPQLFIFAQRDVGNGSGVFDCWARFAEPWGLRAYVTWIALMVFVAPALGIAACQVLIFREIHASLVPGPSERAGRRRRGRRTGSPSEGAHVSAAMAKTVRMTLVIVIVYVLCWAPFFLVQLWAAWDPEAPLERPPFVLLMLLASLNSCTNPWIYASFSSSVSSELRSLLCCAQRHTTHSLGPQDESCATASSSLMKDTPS
Protocol: (§1) Nonspecific binding (5-10% of the total binding) was determined using 10 μM unlabeled AVP, and the binding reaction was terminated by filtration as described above for the [^3 H]OT binding assay.

uterine OT receptors = molecular target: T2, uterine OT receptors (Rattus norvegicus, UniProt P70536); experiment: [^3 H]OT binding to uterine OT receptors, crude membrane preparation of uteri from DES-treated rats; details: for IC50: rat uterus membranes, 1 nM [^3 H]OT, read-out: Receptor Binding Results IC50 (nM) [^3 H]OT; for inhibition at 1 µM: 1 h, read-out: [^3 H]OT: percent inhibition of radioligand at the given concentration
T2 construct: from tissue; host or cells: uterus of DES-treated rats, crude membranes
T2 sequence (P70536 1-388): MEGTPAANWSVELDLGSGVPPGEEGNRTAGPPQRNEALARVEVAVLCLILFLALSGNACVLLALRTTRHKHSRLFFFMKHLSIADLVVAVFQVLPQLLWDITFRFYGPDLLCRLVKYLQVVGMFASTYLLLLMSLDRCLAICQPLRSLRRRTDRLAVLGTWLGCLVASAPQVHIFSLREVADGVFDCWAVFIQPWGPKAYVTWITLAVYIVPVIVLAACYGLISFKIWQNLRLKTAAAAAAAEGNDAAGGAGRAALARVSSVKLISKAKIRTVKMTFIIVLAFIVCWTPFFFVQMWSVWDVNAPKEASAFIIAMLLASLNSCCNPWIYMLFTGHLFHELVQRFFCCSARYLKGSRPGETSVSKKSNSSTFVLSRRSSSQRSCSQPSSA
Protocol: Competition studies were conducted at equilibrium (60 minutes; 22° C.) using 1 nM [^3 H]OT in the following assay buffer: 50 mM Tris-HCl, 5 mM MgCl2, and 0.1% BSA, pH 7.4.

AVP-V1 sites = molecular target: T3, AVP-V1 sites (Rattus norvegicus, UniProt P30560); experiment: [^3 H]AVP binding to crude membrane preparation of male rat liver (AVP-V1 sites)
T3 construct: crude membrane preparation of male rat liver (AVP-V1 sites); from tissue; host or cells: male rat liver, crude membranes
T3 sequence (P30560 whole entry): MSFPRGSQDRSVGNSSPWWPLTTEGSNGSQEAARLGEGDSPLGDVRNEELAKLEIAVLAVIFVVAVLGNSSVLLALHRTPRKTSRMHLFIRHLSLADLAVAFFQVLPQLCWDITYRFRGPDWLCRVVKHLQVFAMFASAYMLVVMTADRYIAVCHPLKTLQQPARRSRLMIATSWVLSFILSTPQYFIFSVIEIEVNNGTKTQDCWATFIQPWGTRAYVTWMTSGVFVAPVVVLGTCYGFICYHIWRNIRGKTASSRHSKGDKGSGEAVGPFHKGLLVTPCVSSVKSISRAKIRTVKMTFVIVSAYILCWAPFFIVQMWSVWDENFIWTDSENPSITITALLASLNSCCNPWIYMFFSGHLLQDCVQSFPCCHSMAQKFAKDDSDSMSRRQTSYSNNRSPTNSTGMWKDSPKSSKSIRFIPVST
Protocol: as §1

[1] = rat kidney medulla membranes, 2 nM [^3 H]AVP, read-out: Receptor Binding Results IC50 (nM) [^3 H]-AVP-V2
[2] = Receptor Binding Results IC50 (nM) [^3 H]-AVP-V1
[3] = read-out: Receptor Binding Results IC50 (nM) [^3 H]-AVP-V2
[4] = read-out: Receptor Binding Results IC50 (nM) [^3 H]-AVP-V1

Molecule	IC50 (AVP-V2 sites; [1]) [nM]	IC50 (uterine OT receptors) [nM]	IC50 (AVP-V1 sites; [2]) [nM]	also measured
CC[C@H](C)[C@@H]1NC(=O)C(Cc2cn(C)c3ccccc23)NC(=O)[C@@H]2CCCN2C(=O)[C@@H](Cc2c[nH]cn2)NC(=O)[C@@H]2CCCCN2C(=O)[C@H]2CCCCN2C1=O (single isomer, unassigned) [153 lower Rf]				inhibition at 10 µM (AVP-V2 sites; 0.5 h, @ 10,000 (nM), read-out: [^3 H]-AVP-V2: percent inhibition of radioligand at the given concentration): 73%
CC[C@H](C)[C@@H]1NC(=O)C(Cc2c[nH]c3ccc(F)cc23)NC(=O)[C@@H]2CCCN2C(=O)[C@@H](Cc2c[nH]cn2)NC(=O)[C@@H]2CCCCN2C(=O)[C@H]2CCCCN2C1=O (single isomer, unassigned) [157 higher Rf]	> 10000	590	10000	
CC[C@H](C)[C@@H]1NC(=O)C(Cc2c[nH]c3ccc(F)cc23)NC(=O)[C@@H]2CCCN2C(=O)[C@@H](Cc2c[nH]cn2)NC(=O)[C@@H]2CCCCN2C(=O)[C@H]2CCCCN2C1=O (single isomer, unassigned) [157 lower Rf]				IC50 (AVP-V2 sites; [3]): 26000 nM; inhibition at 1 µM (uterine OT receptors; @ 1,000 (nM)): 6%; IC50 (AVP-V1 sites; [4]): 13000 nM
CC[C@H](C)[C@@H]1NC(=O)[C@@H](Cc2ccccc2)NC(=O)[C@@H]2CCCN2C(=O)C(Cc2cccnc2)NC(=O)[C@@H]2CCCCN2C(=O)[C@H]2CCCCN2C1=O (single isomer, unassigned) [Example 10 (isomer 1), Cyclo[D-Phe-L-Ile-D-Pip-L-Pip-D,L-3-PyrAla-L-Pro]]	> 10000	1000	> 10000	
CC[C@H](C)[C@@H]1NC(=O)[C@@H](Cc2ccccc2)NC(=O)[C@@H]2CCCN2C(=O)C(Cc2cccnc2)NC(=O)[C@@H]2CCCCN2C(=O)[C@H]2CCCCN2C1=O (single isomer, unassigned) [Example 10 (isomer 2), Cyclo[D-Phe-L-Ile-D-Pip-L-Pip-D,L-3-PyrAla-L-Pro]]	10000	1000	> 10000	
CC[C@H](C)[C@@H]1NC(=O)[C@@H](C)NC(=O)[C@@H]2CCCN2C(=O)[C@@H](Cc2ccccc2)NC(=O)[C@@H]2CCCCN2C(=O)[C@H]2CCCCN2C1=O [Example 2, Cylco[D-alanyl-L-isoleucyl-D-pipecolyl-L-pipecolyl-D-phenylalanyl-L-prolyl]] (cyclo(I[dPip][Pip][dF]P[dA]))	> 10000	> 10000	> 10000	
CC[C@H](C)[C@@H]1NC(=O)[C@@H](Cc2ccccc2)NC(=O)[C@@H]2CCCN2C(=O)[C@@H](Cc2cnc[nH]2)NC(=O)[C@@H]2CCCCN2C(=O)[C@H]2CCCCN2C1=O [Example 3] (cyclo(I[dPip][Pip][dH]P[dF]))	19000	88		IC50 (AVP-V1 sites; [4]): 7300 nM
CC[C@H](C)[C@@H]1NC(=O)[C@@H](Cc2c[nH]cn2)NC(=O)[C@@H]2CCCN2C(=O)[C@@H](Cc2ccccc2)N(C)C(=O)[C@@H]2CCCCN2C(=O)[C@H]2CCCCN2C1=O [Example 4, Cyclo[D-histidyl-L-isoleucyl-D-pipecolyl-L-pipecolyl-D-(N^α -methyl)-phenylalanyl-L-prolyl]] (cyclo(I[dPip][Pip][dNMeF]P[dH]))	> 10000	> 10000	> 10000	
CC[C@H](C)[C@@H]1NC(=O)[C@@H](Cc2cccc3ccccc23)NC(=O)[C@@H]2CCCN2C(=O)[C@@H](Cc2cnc[nH]2)NC(=O)[C@@H]2CCCCN2C(=O)[C@H]2CCCCN2C1=O [Example 11, Cyclo[D-a-naphthalalanyl-L-isoleucyl-D-pipecolyl-L-pipecolyl-D-histidyl-L-prolyl]] (cyclo(I[dPip][Pip][dH]P[d1Nal]))			> 1000	IC50 (AVP-V2 sites; Receptor Binding Results IC50 (nM) [^3 H]-AVP-V2): > 1000 nM
CC[C@H](C)[C@@H]1NC(=O)[C@@H](Cc2ccccc2)NC(=O)[C@@H]2CCCN2C(=O)[C@@H](Cc2ccccc2)NC(=O)[C@@H]2CCCNN2C(=O)[C@H]2CCCNN2C1=O [Example 96, c-[L-prolyl-D-phenylalanyl-L-isoleucyl-D-piperazyl-L-piperazyl-D-phenylalanyl]] (cyclo(I[X6][X12][dF]P[dF]))		245		IC50 (AVP-V1 sites; [4]): 2900 nM
CN1C(=O)[C@@H]2CCCCN2C(=O)[C@H]2CCCCN2C(=O)[C@H](Cc2ccccc2)NC(=O)[C@@H](Cc2c[nH]c3ccccc23)NC(=O)[C@@H]2CCCN2C(=O)[C@H]1Cc1ccccc1 [Example 134, c-[D-Tryptophanyl-L-phenylalanyl-D-pipecolyl-L-pipecolyl-D-(N-methyl)phenylalanyl-prolyl]] (cyclo(F[dPip][Pip][dNMeF]P[dW]))		110		IC50 (AVP-V2 sites; [3]): 8000 nM
CC[C@H](C)[C@@H]1NC(=O)[C@@H](Cc2ccc3ccccc3c2)NC(=O)[C@@H]2CCCN2C(=O)[C@@H](Cc2ccccc2)N(C)C(=O)[C@H](CCCCN)NC(=O)[C@H]2CCCCN2C1=O [Example 140, C-[D-2-Napthylalanyl-L-isoleucyl-D-pipecolyl-L-lysyl-D-(N-methyl)phenylalanyl-L-prolyl]] (cyclo([d2Nal]I[dPip]K[dNMeF]P))				inhibition at 1 µM (AVP-V2 sites; 0.5 h, @ 1,000 (nM), read-out: [^3 H]-AVP-V2: percent inhibition of radioligand at the given concentration): 84%
CC[C@H](C)[C@@H]1NC(=O)C(Cc2cccc(O)c2)NC(=O)[C@@H]2CCCN2C(=O)[C@@H](Cc2ccccc2)N(C)C(=O)[C@H](CCCCNC(=O)OC(C)(C)C)NC(=O)[C@H]2CCCCN2C1=O (stereo partly drawn) [Example 143, C-[D,L-meta-Tyrosinyl-L-isoleucyl-D-pipecolyl-L-(N-t-butyloxycarbonyl)lysyl-D-(N-methyl)phenylalanyl-L-prolyl]] (cyclo(I[dPip]K(Boc)[dNMeF]P[ξmTyr]))				inhibition at 1 µM (uterine OT receptors; @ 1,000 (nM)): 68%
CC[C@H](C)[C@@H]1NC(=O)[C@@H](Cc2ccc3ccccc3c2)NC(=O)[C@@H]2CCCN2C(=O)[C@@H](Cc2c[nH]cn2)NC(=O)[C@H]2CNCCN2C(=O)[C@H]2CCCCN2C1=O [Example 161, c-[D-2-Naphthylalanyl-L-isoleucyl-D-pipecolyl-D-piperazin-2-yl-D-histidyl-L-prolyl]] (cyclo(I[dPip][dPip(4-aza)][dH]P[d2Nal]))		6.7		
CC[C@H](C)[C@@H]1NC(=O)[C@@H](Cc2ccccc2)NC(=O)[C@@H]2CCCN2C(=O)[C@@H](Cc2ccccc2)NC(=O)[C@@H]2CN(C(=O)OCc3ccccc3)CCN2C(=O)[C@H]2CCCN2C1=O [Example 163, c-[D-Phenylalanyl-L-isoleucinyl-D-prolyl-L-piperazin-2-yl(4-Cbz)-D-phenylalanyl-L-prolyl]] (cyclo([dF]I[dP][X2][dF]P))				inhibition at 1 µM (uterine OT receptors; @ 1,000 (nM)): 49%
CC[C@H](C)[C@@H]1NC(=O)[C@@H](Cc2ccccc2)NC(=O)[C@@H]2CCCN2C(=O)[C@@H](Cc2cncn2C)NC(=O)[C@@H]2CNCCN2C(=O)[C@H]2CCCCN2C1=O [Example 178, c-[D-Phenylalany-L-isoleucinyl-D-pipecolyl-L-piperazin-2-yl-D-(N^immethyl)histidinyl-L-prolyl]] (cyclo(I[dPip][Pip(4-aza)][dHis(π-Me)]P[dF]))				inhibition at 1 µM (uterine OT receptors; @ 1,000 (nM)): 77%
C-[D,L-3-(3-(7-Methyl)indolyl)alanyl-L-isoleucyl-D-pipecolyl-L-pipecolyl-D- histidyl-L-prolyl] [Example 155]				[^3 H]-AVP-V2: percent inhibition of radioligand at the given concentration (AVP-V2 sites; @ 1,000 (nM)): 30%; [^3 H]OT: percent inhibition of radioligand at the given concentration (uterine OT receptors; @ 100 (nM)): 48%
c-[D,L-3-(3-(1-Methyl)indolyl)alanyl-L-isoleucyl-D-pipecolyl-L-pipecolyl-D- histidyl-L-prolyl] [Example 153]				[^3 H]-AVP-V2: percent inhibition of radioligand at the given concentration (AVP-V2 sites; @ 1,000 (nM)): 35%; [^3 H]OT: percent inhibition of radioligand at the given concentration (uterine OT receptors; @ 10 (nM)): 48%
c-[D-Phenylalanyl-L-isoleucinyl-D-pipecolyl-D-piperazin-2-yl(4-Cbz)-L-(BOM)histidyl-L-prolyl] [Example 93]				[^3 H]OT: percent inhibition of radioligand at the given concentration (uterine OT receptors; @ 1,000 (nM)): 42%
